Our source for the Ki values is patent publication US10562850B2, “Human plasma kallikrein inhibitors” (priority 2015, dated 2020).

Where only a bound is given, the exact number is not on record here.

Broadly, the Ki is the dissociation constant of the complex between target and ligand, obtained from inhibition or displacement. Read a low Ki as tighter binding.

human plasma kallikrein, sequence (P03952 391-638): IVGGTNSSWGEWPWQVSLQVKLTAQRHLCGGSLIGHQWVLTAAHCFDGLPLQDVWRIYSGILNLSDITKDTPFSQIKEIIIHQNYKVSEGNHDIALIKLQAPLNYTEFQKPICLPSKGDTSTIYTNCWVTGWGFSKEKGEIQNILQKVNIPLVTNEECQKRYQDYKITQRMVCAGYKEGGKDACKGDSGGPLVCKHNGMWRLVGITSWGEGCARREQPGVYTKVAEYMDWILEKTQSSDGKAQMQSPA
human plasma kallikrein, sequence (P03952 20-390 partner): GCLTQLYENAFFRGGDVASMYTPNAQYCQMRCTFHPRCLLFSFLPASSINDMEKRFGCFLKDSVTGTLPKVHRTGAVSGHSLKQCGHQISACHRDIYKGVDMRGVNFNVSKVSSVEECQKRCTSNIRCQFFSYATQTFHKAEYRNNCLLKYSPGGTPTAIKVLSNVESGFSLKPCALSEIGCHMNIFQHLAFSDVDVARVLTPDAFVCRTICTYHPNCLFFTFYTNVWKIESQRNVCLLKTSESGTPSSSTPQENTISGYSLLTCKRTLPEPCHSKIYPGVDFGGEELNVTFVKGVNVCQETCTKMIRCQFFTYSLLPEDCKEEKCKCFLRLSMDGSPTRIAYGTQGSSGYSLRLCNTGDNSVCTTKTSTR

In the assay the target is human plasma kallikrein (Homo sapiens (Human), UniProt P03952). Description: Plasma Kallikrein Activity Assay (chromogenic substrate S2302). Type of assay: biochemical. Conditions: 2 nM kallikrein, 80 μM S2302, 30° C., pH 7.8; Cheng-Prusoff. The procedure:
Plasma Kallikrein Activity Assay.
The effect of compounds of the invention on human plasma kallikrein activity was determined using the chromogenic substrates (DiaPharma Group, Inc., West Chester, Ohio, USA). In these experiments, 2 nM kallikrein (Enzyme Research Laboratories, South Bend, Ind., USA) was incubated with 80 μM S2302 (H-D-Pro-Phe-Arg-p-nitroaniline) in the absence or presence of increasing concentrations of compounds of the invention in a final volume of 200 μL Tris-HCl buffer (200 mM NaCl; 2.5 mM CaCl2; 50 mM Tris-HCl, pH 7.8).
After incubation at 30° C., the activity of kallikrein was measured as a change in absorbance at OD 405 nm using BioTek PowerWave X340 Microplate Reader (Winooski, Vt., USA). Data were analyzed using SigmaPlot software (Systat Software, Inc., San Jose, Calif., USA) (Four Parameter Logistic Curve). Ki values for the inhibitors were determined using the Cheng-Prusoff equation (Biochem. Pharmacol. 1973, 22, 3099).
`NC(CCC1CC1)(c1cccnc1)c1ccc(F)c(NC(=O)[C@H]2C[C@@H](O)CN2C(=O)Nc2ccc(Cl)cc2)c1` (stereo partly drawn) [Compound 64g, (2R,4R)-N2-(5-((+)-1-amino-3-cyclopropyl-1-(pyridin-3-yl)propyl)-2-fluorophenyl)-N1-(4-chlorophenyl)-4-hydroxypyrrolidine-1,2-dicarboxamide] came in with a Ki of under 0.05 µM.

`CO[C@@H]1C[C@H](C(=O)Nc2cc(C(N)(CCC3CC3)c3ccnc(C)c3)ccc2F)N(C(=O)Nc2ccc(Cl)cn2)C1` (stereo partly drawn) [Compound 46k, (2R,4R)-N2-(5-((+)-1-amino-3-cyclopropyl-1-(2-methylpyridin-4-yl)propyl)-2-fluorophenyl)-N1-(5-chloropyridin-2-yl)-4-methoxypyrrolidine-1,2-dicarboxamide] had a Ki of under 0.05 µM.

Compound `C[C@@H]1C[C@H](C(=O)Nc2cc(C(N)(CCC3CC3)c3ccncc3)ccc2F)N(C(=O)Nc2ccc(Cl)cn2)C1` (stereo partly drawn) [Compound 49d, (2R,4R)-N2-(5-((+)-1-amino-3-cyclopropyl-1-(pyridin-4-yl)propyl)-2-fluorophenyl)-N1-(5-chloropyridin-2-yl)-4-methylpyrrolidine-1,2-dicarboxamide] returned a Ki of 0.05 to 0.1 µM.

`CC(C)(C)[S@@+]([O-])NC(CCC1CC1)(c1cccc(C#N)c1)c1ccc(F)c(NC(=O)[C@H]2C[C@H](N=[N+]=[N-])CN2C(=O)Nc2ccc(Cl)cc2)c1` (stereo partly drawn) [Compound 33b, (2R,4S)-4-azido-N1-(4-chlorophenyl)-N2-(5-((+)-1-(3-cyanophenyl)-3-cyclopropyl-1-((R)-1,1-dimethylethylsulfinamido)propyl)-2-fluorophenyl)pyrrolidine-1,2-dicarboxamide]: the Ki is over 0.1 µM.

In turn, `NC(CCC1CC1)(c1ccncc1)c1ccc(F)c(NC(=O)[C@H]2C[C@@H](O)CN2C(=O)Nc2ccc(Cl)cn2)c1` (stereo partly drawn) [Compound 72c, (2R,4R)-N2-(5-((+)-1-amino-3-cyclopropyl-1-(pyridin-4-yl)propyl)-2-fluorophenyl)-N1-(5-chloropyridin-2-yl)-4-hydroxypyrrolidine-1,2-dicarboxamide] registered a Ki of under 0.05 µM.

Compound `Cc1ccc(NC(=O)N2C[C@H](O)C[C@@H]2C(=O)Nc2cc(C(N)(CCC3CC3)c3cccc(C#N)c3)ccc2F)cc1` (stereo partly drawn) [Compound 22b, (2R,4R)-N2-(5-((+)-1-amino-1-(3-cyanophenyl)-3-cyclopropylpropyl)-2-fluorophenyl)-4-hydroxy-N1-p-tolylpyrrolidine-1,2-dicarboxamide] registered a Ki of over 0.1 µM.

On to `N#Cc1cccc(C(CCC2CC2)(NC(=O)Nc2ccc(Cl)cc2)c2ccc(F)c(NC(=O)[C@H]3C[C@](O)(c4ccccc4)CN3C(=O)Nc3ccc(Cl)cc3)c2)c1` (stereo partly drawn) [Compound 30b, (2R,4S)-N1-(4-chlorophenyl)-N2-(5-((+)-1-(3-(4-chlorophenyl)ureido)-1-(3-cyanophenyl)-3-cyclopropylpropyl)-2-fluorophenyl)-4-hydroxy-4-phenylpyrrolidine-1,2-dicarboxamide], for which the Ki was in the range of 0.05 to 0.1 µM.

With `CO[C@@H]1C[C@H](C(=O)Nc2cc(C(N)(CCC3CC3)c3ccncc3)ccc2F)N(C(=O)Nc2ccc(Cl)cn2)C1` (stereo partly drawn) [Compound 70c, (2R,4R)-N2-(5-((+)-1-amino-3-cyclopropyl-1-(pyridin-4-yl)propyl)-2-fluorophenyl)-N1-(5-chloropyridin-2-yl)-4-methoxypyrrolidine-1,2-dicarboxamide], the Ki was under 0.05 µM.

Compound `O=C(Nc1ccc(Cl)cn1)NC(CCC1CC1)(c1ccc(F)c(NC(=O)[C@H]2C[C@](O)(c3ccccc3)CN2C(=O)Nc2ccc(Cl)cn2)c1)c1ccccn1` (stereo partly drawn) [Compound 32b, (2R,4S)-N1-(5-chloropyridin-2-yl)-N2-(5-(1-(3-(5-chloropyridin-2-yl)ureido)-3-cyclopropyl-1-(pyridin-2-yl)propyl)-2-fluorophenyl)-4-hydroxy-4-phenylpyrrolidine-1,2-dicarboxamide] came in with a Ki of over 0.1 µM.

`NC(CCC1CC1)(c1ccncc1)c1ccc(F)c(NC(=O)[C@H]2C[C@](O)(C(F)(F)F)CN2C(=O)Nc2ccc(Cl)cn2)c1` (stereo partly drawn) [Compound 54g, (2R,4R)-N2-(5-(1-amino-3-cyclopropyl-1-(pyridin-4-yl)propyl)-2-fluorophenyl)-N1-(5-chloropyridin-2-yl)-4-hydroxy-4-(trifluoromethyl)pyrrolidine-1,2-dicarboxamide] came in with a Ki of under 0.05 µM.

In turn, `N#Cc1cccc(C(N)(CCC2CC2)c2ccc(F)c(NC(=O)[C@H]3C[C@@H](O)CN3C(=O)Nc3ccc(Cl)cc3)c2)c1` (stereo partly drawn) [Compound 4g, (2R,4R)-N2-(5-((+)-1-amino-1-(3-cyanophenyl)-3-cyclopropylpropyl)-2-fluorophenyl)-N1-(4-chlorophenyl)-4-hydroxypyrrolidine-1,2-dicarboxamide] displayed a Ki of 0.05 to 0.1 µM.

`CO[C@@H]1C[C@H](C(=O)Nc2cc(C(N)(CCC3CC3)c3ccncc3)ccc2F)N(C(=O)Cc2ccc(Cl)cc2)C1` (stereo partly drawn) [Compound 76e, (2R,4R)-N-(5-((+)-1-amino-3-cyclopropyl-1-(pyridin-4-yl)propyl)-2-fluorophenyl)-1-(2-(4-chlorophenyl)acetyl)-4-methoxypyrrolidine-2-carboxamide] showed a Ki of over 0.1 µM.

Turning to `N#Cc1cccc(C(N)(CCC2CC2)c2ccc(F)c(NC(=O)[C@H]3C[C@@H](O)CN3C(=O)Nc3cccc4ccccc34)c2)c1` (stereo partly drawn) [Compound 26b, (2R,4R)-N2-(5-((+)-1-amino-1-(3-cyanophenyl)-3-cyclopropylpropyl)-2-fluorophenyl)-4-hydroxy-N1-(naphthalen-1-yl)pyrrolidine-1,2-dicarboxamide], the Ki was over 0.1 µM.

Consider `NC(CCC1CC1)(c1ccncc1)c1ccc(F)c(NC(=O)[C@H]2C[C@@H](O)CN2C(=O)Nc2ccc(Cl)cc2)c1` (stereo partly drawn) [Compound 69a, (2R,4R)-N2-(5-((+)-1-amino-3-cyclopropyl-1-(pyridin-4-yl)propyl)-2-fluorophenyl)-N1-(4-chlorophenyl)-4-hydroxypyrrolidine-1,2-dicarboxamide], for which the inhibition constant (Ki) is under 0.05 µM.

Consider `NC(CCC1CC1)(c1ccncc1)c1ccc(F)c(NC(=O)[C@H]2C[C@](O)(c3ccccc3)CN2C(=O)Nc2ccc(Cl)cn2)c1` (stereo partly drawn) [Compound 39h, (2R,4S)-N2-(5-((+)-1-amino-3-cyclopropyl-1-(pyridin-4-yl)propyl)-2-fluorophenyl)-N1-(5-chloropyridin-2-yl)-4-hydroxy-4-phenylpyrrolidine-1,2-dicarboxamide], for which the Ki was under 0.05 µM.

Compound `CO[C@@H]1C[C@H](C(=O)Nc2cc(C(CCC3CC3)(N[S@+]([O-])C(C)(C)C)c3cccc(C#N)c3)ccc2F)N(C(=O)N(C)c2ccc(Cl)cc2)C1` (stereo partly drawn) [Compound 6c, (2R,4R)-N1-(4-chlorophenyl)-N2-(5-((−)-1-(3-cyanophenyl)-3-cyclopropyl-1-((R)-1,1-dimethylethylsulfinamido)propyl)-2-fluorophenyl)-4-methoxy-N1-methylpyrrolidine-1,2-dicarboxamide] returned a Ki of over 0.1 µM.

As for `NC(CCC1CC1)(c1ccc(F)c(NC(=O)[C@H]2C[C@](O)(c3ccccc3)CN2C(=O)Nc2ccc(Cl)cc2)c1)c1ccccn1` (stereo partly drawn) [Compound 31i, (2R,4S)-N2-(5-((−)-1-amino-3-cyclopropyl-1-(pyridin-2-yl)propyl)-2-fluorophenyl)-N1-(4-chlorophenyl)-4-hydroxy-4-phenylpyrrolidine-1,2-dicarboxamide], the Ki was under 0.05 µM.

In turn, `CO[C@]1(c2ccccc2)C[C@H](C(=O)Nc2cc(C(N)(CCC3CC3)c3ccncc3)ccc2F)N(C(=O)Nc2ccc(Cl)cn2)C1` (stereo partly drawn) [Compound 45c, (2R,4S)-N2-(5-((+)-1-amino-3-cyclopropyl-1-(pyridin-4-yl)propyl)-2-fluorophenyl)-N1-(5-chloropyridin-2-yl)-4-methoxy-4-phenylpyrrolidine-1,2-dicarboxamide] returned a Ki of over 0.1 µM.

With `N#Cc1cccc(C(N)(CCC2CC2)c2ccc(F)c(NC(=O)[C@H]3C[C@H](O)CN3C(=O)Nc3ccc(Cl)cc3)c2)c1` (stereo partly drawn) [Compound 9c, (2R,4S)-N2-(5-((+)-1-amino-1-(3-cyanophenyl)-3-cyclopropylpropyl)-2-fluorophenyl)-N1-(4-chlorophenyl)-4-hydroxypyrrolidine-1,2-dicarboxamide], the Ki is over 0.1 µM.

The compound `CNC(CCC1CC1)(c1ccncc1)c1ccc(F)c(NC(=O)[C@H]2C[C@](O)(c3ccccc3)CN2C(=O)Nc2ccc(Cl)cn2)c1` (stereo partly drawn) [Compound 41a, (2R,4S)-N1-(5-chloropyridin-2-yl)-N2-(5-((+)-3-cyclopropyl-1-(methylamino)-1-(pyridin-4-yl)propyl)-2-fluorophenyl)-4-hydroxy-4-phenylpyrrolidine-1,2-dicarboxamide] showed a Ki of under 0.05 µM.

Compound `CO[C@@H]1C[C@H](C(=O)Nc2cc(C(N)(CCC3CC3)c3cccc(C#N)c3)ccc2F)N(C(=O)Nc2ccc(Cl)cn2)C1` (stereo partly drawn) [Compound 18b, (2R,4R)-N2-(5-((+)-1-amino-1-(3-cyanophenyl)-3-cyclopropylpropyl)-2-fluorophenyl)-N1-(5-chloropyridin-2-yl)-4-methoxypyrrolidine-1,2-dicarboxamide] registered an inhibition constant (Ki) of under 0.05 µM.

As to `NC(CCC1CC1)(c1ccncc1)c1ccc(F)c(NC(=O)[C@H]2C[C@](O)(C3CC3)CN2C(=O)Nc2ccc(Cl)cn2)c1` (stereo partly drawn) [Compound 59d, (2R,4S)-N2-(5-((+)-1-amino-3-cyclopropyl-1-(pyridin-4-yl)propyl)-2-fluorophenyl)-N1-(5-chloropyridin-2-yl)-4-cyclopropyl-4-hydroxypyrrolidine-1,2-dicarboxamide], the Ki was under 0.05 µM.
